Test systems include ACHN; SF-295; BT-549; MDA-MB-435; 786-0; HL-60; IGROV-1; MDA-N; HCT-15; T47D; NCI/ADR-RES; SF-268; DU-145; SF-539; K562; U-251; OVCAR-5; Hs-578T; SK-OV-3; DLD-1.
Experiment in all cases: DTP human tumour cell line panel, 48 h

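Five compound concentrations were applied to cells in 96-well plates for 48 hours; endpoints were derived by simple linear interpolation of the resulting dose-response curve. GI50 marks 50% less growth.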 The source made the active and inactive calls. Rule as the data show it: active = GI50 up to about 1.1 µM and inactive = higher. Where only a bound is given, the exact number is not on record here.

From ChEMBL document CHEMBL1201862, “PubChem BioAssay data set” (2004) come the findings set out here.

A word on the GI50: it is the concentration that inhibits growth by half.

On to `Cc1cc(S(=O)(=O)NC2=NCc3nc4ccccc4n32)c(S)cc1Cl`, for which the GI50 with ACHN is 32.4 µM (inactive); in the assay on SF-295 it was 19.9 µM (inactive); with BT-549, 23 µM (inactive); with MDA-MB-435 it was 28.8 µM (inactive); in the assay with 786-0 it was 21 µM (inactive); in the assay on HL-60, 24.2 µM (inactive). The GI50 in the assay on IGROV-1 was 24.8 µM (inactive); in the assay on MDA-N, 26 µM (inactive); in the assay on HCT-15, 24.7 µM; with T47D, 21.9 µM (inactive); with NCI/ADR-RES, 19.6 µM (inactive); with SF-268, 32 µM (inactive). In addition, the GI50 with DU-145 is 31.2 µM (inactive); with SF-539, 20.7 µM (inactive); in the assay with K562, 42.9 µM (inactive); in the assay on U-251, 33.5 µM (inactive); with OVCAR-5, 20.7 µM (inactive); with Hs-578T, 21.4 µM (inactive).

On to `Cn1c(=O)n2n(c1=O)C(C)(C13CC4CC(CC(C4)C1)C3)C13CC4CC(CC1C4)CC23` (stereo unspecified), for which the GI50 was > 100 µM (inactive) in the assay with ACHN; > 100 µM (inactive) in the assay on SF-295; > 100 µM (inactive) in the assay with BT-549; > 100 µM (inactive) with MDA-MB-435; 6.76 µM (inactive) with HL-60; > 100 µM (inactive) with IGROV-1. Further, the GI50 is > 100 µM (inactive) in the assay with MDA-N; over 100 µM with HCT-15; > 100 µM (inactive) in the assay with T47D; > 100 µM (inactive) in the assay with SK-OV-3; > 100 µM (inactive) in the assay with NCI/ADR-RES; > 100 µM (inactive) in the assay on SF-268. Further, the GI50 in the assay with DU-145 was > 100 µM (inactive); in the assay on SF-539, > 100 µM (inactive); in the assay with K562, 87.1 µM (inactive); with U-251 it was > 100 µM (inactive); in the assay on OVCAR-5, > 100 µM (inactive); in the assay with Hs-578T, > 100 µM (inactive).

For the molecule `COc1ccc(-c2c(-c3ccccc3)c(C)c3ccccn23)cc1`, the GI50 with ACHN is > 100 µM (inactive); with SF-295 it was > 100 µM (inactive); with BT-549, > 100 µM (inactive); in the assay on MDA-MB-435, 52.2 µM (inactive); in the assay with 786-0, > 100 µM (inactive); in the assay with HL-60, 48.4 µM (inactive). For the same molecule, the GI50 in the assay on IGROV-1 is > 100 µM (inactive); in the assay on MDA-N, 70.1 µM (inactive); in the assay on HCT-15, 56.9 µM; in the assay on T47D it was 22.8 µM (inactive); with SK-OV-3, > 100 µM (inactive); in the assay on NCI/ADR-RES it was > 100 µM (inactive). The GI50 was > 100 µM (inactive) in the assay on DU-145; > 100 µM (inactive) in the assay on SF-539; 50 µM (inactive) in the assay on K562; > 100 µM (inactive) in the assay on U-251; > 100 µM (inactive) in the assay on OVCAR-5; > 100 µM (inactive) with Hs-578T.

As for `COC(=O)C(NC(=O)OC(C)(C)C)P(=O)(OC)OC` (stereo unspecified), the GI50 with ACHN, in the assay on SF-295, in the assay with BT-549, with MDA-MB-435, in the assay on 786-0 and with HL-60 was > 100 µM (inactive) each time. The GI50 was > 100 µM (inactive) in the assay with IGROV-1; > 100 µM (inactive) in the assay on MDA-N; over 100 µM with HCT-15; > 100 µM (inactive) in the assay on T47D; > 100 µM (inactive) in the assay on SK-OV-3; > 100 µM (inactive) with NCI/ADR-RES. In addition, the GI50 in the assay on SF-268, with DU-145, in the assay with K562, in the assay with U-251, in the assay on OVCAR-5 and with Hs-578T was > 100 µM (inactive) each time.

For the molecule `c1ccc2c(c1)c1c(n2CCOCCCN2CCCCC2)CCCC1`, the GI50 with ACHN is 15.1 µM (inactive); with BT-549 it was 15.5 µM (inactive); in the assay with MDA-MB-435, 18.1 µM (inactive); in the assay on HL-60, 10.1 µM (inactive); in the assay on IGROV-1, 14.7 µM (inactive); in the assay with MDA-N, 21.8 µM (inactive). The GI50 with HCT-15 is 14.2 µM; with T47D it was 17.2 µM (inactive); with NCI/ADR-RES, 17.9 µM (inactive); in the assay with SF-268, 28.2 µM (inactive); in the assay on DU-145, 44.7 µM (inactive); with SF-539 it was 15.7 µM (inactive). Also, the GI50 is 14 µM (inactive) with K562, 16 µM (inactive) in the assay with U-251, 13.1 µM (inactive) in the assay on OVCAR-5 and 20.1 µM (inactive) in the assay with Hs-578T.

Turning to `Cc1nc2c(nc1Cl)nc(Oc1ccc(Cl)cc1)c1ccccc12`, the GI50 was 39.5 µM (inactive) in the assay with ACHN; 37.2 µM (inactive) in the assay on SF-295; 18.6 µM (inactive) in the assay with 786-0; 55.7 µM (inactive) with IGROV-1; 49.9 µM (inactive) in the assay with DLD-1; over 100 µM with HCT-15. The GI50 with SK-OV-3 is > 100 µM (inactive); with SF-268, 56.8 µM (inactive); in the assay on SF-539, 90.8 µM (inactive); in the assay on K562, > 100 µM (inactive); with U-251, 19.5 µM (inactive); in the assay with OVCAR-5, > 100 µM (inactive).

In the case of `CCCC(=O)Nc1cc2c3c(c1)CCCN3CCC2`, the GI50 in the assay with ACHN, with SF-295, with BT-549, with MDA-MB-435, with 786-0 and in the assay on HL-60 was > 10 µM (inactive) in each case. Moreover, the GI50 with IGROV-1 was > 10 µM (inactive); in the assay with MDA-N, > 10 µM (inactive); with HCT-15, over 10 µM; in the assay on T47D, 6.01 µM (inactive); in the assay with SK-OV-3 it was 9.66 µM (inactive); in the assay with NCI/ADR-RES it was > 10 µM (inactive). Further, the GI50 with SF-268, in the assay with DU-145, in the assay on SF-539, with K562, with U-251 and with OVCAR-5 was > 10 µM (inactive) throughout. The GI50 in the assay on Hs-578T was > 10 µM (inactive).

Turning to `Cc1cc2nc3c(C(O)CO)nn(-c4ccccc4)c3nc2cc1C` (stereo unspecified), the GI50 was 14.4 µM (inactive) with ACHN; 15.7 µM (inactive) in the assay on SF-295; 18.8 µM (inactive) in the assay on BT-549; 21.2 µM (inactive) in the assay on MDA-MB-435; 17.9 µM (inactive) with 786-0; 21.6 µM (inactive) in the assay on HL-60. Besides, the GI50 in the assay with IGROV-1 is 17.3 µM (inactive); in the assay with MDA-N, 18.3 µM (inactive); in the assay on HCT-15 it was 14.9 µM; in the assay with T47D, 11.5 µM (inactive); with NCI/ADR-RES, 16.1 µM (inactive); in the assay with SF-268, 23.7 µM (inactive). In addition, the GI50 in the assay on DU-145 was 15.4 µM (inactive); in the assay with SF-539, 20.7 µM (inactive); in the assay on K562, 12.9 µM (inactive); with U-251 it was 15.2 µM (inactive); with OVCAR-5 it was 22.3 µM (inactive); in the assay on Hs-578T, 31.6 µM (inactive).

Regarding `C[N+](C)(C)/C=N\c1cccc2c1CCCC2`, the GI50 in the assay on ACHN is > 100 µM (inactive); with SF-295, > 100 µM (inactive); with BT-549, 57.1 µM (inactive); in the assay on MDA-MB-435, 90.8 µM (inactive); with 786-0, > 100 µM (inactive); with HL-60, 0.0885 µM (active). In addition, the GI50 in the assay with IGROV-1 is 75.3 µM (inactive); with MDA-N, > 100 µM (inactive); in the assay with HCT-15 it was over 100 µM; with T47D it was 69.3 µM (inactive); in the assay with SK-OV-3 it was > 100 µM (inactive); in the assay on NCI/ADR-RES, > 100 µM (inactive). Moreover, the GI50 in the assay with SF-268 is > 100 µM (inactive); with DU-145, > 100 µM (inactive); in the assay on SF-539, > 100 µM (inactive); in the assay with K562, 18 µM (inactive); in the assay on U-251, 88.3 µM (inactive); with OVCAR-5, > 100 µM (inactive). Besides, the GI50 in the assay on Hs-578T was > 100 µM (inactive).

For `Cc1c(Cc2ccccc2)n(COCCCO)c(=O)[nH]c1=O`, the GI50 in the assay on ACHN, in the assay on SF-295, with BT-549, in the assay on MDA-MB-435, in the assay on 786-0 and with IGROV-1 was > 100 µM (inactive) each time. Besides, the GI50 is > 100 µM (inactive) in the assay on MDA-N; over 100 µM in the assay on HCT-15; > 100 µM (inactive) in the assay on T47D; > 100 µM (inactive) with SK-OV-3; > 100 µM (inactive) in the assay on NCI/ADR-RES; > 100 µM (inactive) in the assay on SF-268. In addition, the GI50 in the assay on DU-145, in the assay on SF-539, with K562, with U-251, with OVCAR-5 and in the assay with Hs-578T was > 100 µM (inactive) throughout.

Turning to `CC(C)N(C)C(=O)C12C3C4C1C1C2C3C41C#N` (stereo unspecified), the GI50 with ACHN, in the assay with SF-295, in the assay on BT-549, with MDA-MB-435, in the assay with 786-0 and in the assay on HL-60 was > 100 µM (inactive) throughout. Moreover, the GI50 was > 100 µM (inactive) in the assay with IGROV-1; > 100 µM (inactive) with MDA-N; over 100 µM in the assay on HCT-15; > 100 µM (inactive) in the assay on T47D; > 100 µM (inactive) in the assay on NCI/ADR-RES; > 100 µM (inactive) in the assay on SF-268. The GI50 in the assay with DU-145, with SF-539, in the assay on K562, in the assay on U-251, in the assay with OVCAR-5 and in the assay with Hs-578T was > 100 µM (inactive) each time.

`CC(NNC(=O)c1cc[n+]([BH2-]C#N)cc1)c1ccc(Cl)c(Cl)c1` (stereo unspecified): the GI50 is 24.3 µM (inactive) with ACHN; 29.6 µM (inactive) in the assay with SF-295; 27.9 µM (inactive) with BT-549; 34.8 µM (inactive) with MDA-MB-435; 47.5 µM (inactive) with 786-0; 25.8 µM (inactive) in the assay with HL-60. For the same molecule, the GI50 in the assay on IGROV-1 was 38.5 µM (inactive); in the assay on MDA-N, 35.2 µM (inactive); in the assay on HCT-15, 31.6 µM; in the assay with T47D, 23.3 µM (inactive); with SK-OV-3, 27 µM (inactive); in the assay with NCI/ADR-RES, 30.5 µM (inactive). Moreover, the GI50 is 39.6 µM (inactive) with SF-268; 37.8 µM (inactive) in the assay with DU-145; 38.9 µM (inactive) in the assay on SF-539; 34.9 µM (inactive) in the assay on K562; 40.2 µM (inactive) in the assay on U-251; 41.3 µM (inactive) in the assay with OVCAR-5. Besides, the GI50 with Hs-578T was 28.4 µM (inactive).
